Consider 29 compounds from patent US20080194616A1, “PYRIDOPYRIMIDINONE COMPOUNDS USEFUL IN TREATING SODIUM CHANNEL-MEDIATED DISEASES OR CONDITIONS” (Xenon Pharmaceuticals Inc., priority 2007, published 2008).

Molecules are shown by their SMILES. Where a name gives a salt, the structure may show the parent alone.

The test system of the first series is sodium channel. Put plainly: Guanidine Influx Assay (In Vitro Assay). The series is classed as cell-based, human or rat. The following applies: known cell line that expresses a sodium channel; read-out: IC50 Activity Level. An excerpt:
This example describes an in vitro assay for testing and profiling test agents against human or rat sodium channels stably expressed in cells of either an endogenous or recombinant origin. The assay is also useful for determining the IC-50 of a sodium channel blocking compound. The assay is based on the guanidine flux assay described by Reddy, N. L., et al., J. Med. Chem. (1998), 41(17):3298-302.
The guanidine influx assay is a radiotracer flux assay used to determine ion flux activity of sodium channels in a high-throughput microplate-based format. The assay uses ^14C-guanidine hydrochloride in combination with various known sodium channel modulators, to assay the potency of test agents. Potency is determined by an IC-50 calculation. Selectivity is determined by comparing potency of the compound for the channel of interest to its potency against other sodium channels (also called ‘selectivity profiling’).
Each of the test agents is assayed against cells that express the channels of interest. Voltage gated sodium channels are either TTX sensitive or insensitive. This property is useful when evaluating the activities of a channel of interest when it resides in a mixed population with other sodium channels. The following Table 1 summarizes cell lines useful in screening for a certain channel activity in the presence or absence of TTX.
Cells expressing the channel of interest are grown according to the supplier or in the case of a recombinant cell in the presence of selective growth media such as G418 (Gibco/Invitrogen). The cells are disassociated from the culture dishes with an enzymatic solution (1×) Trypsin/EDTA (Gibco/Invitrogen) and analyzed for density and viability using haemocytometer (Neubauer). Disassociated cells are washed and resuspended in their culture media then plated into Scintiplates (Beckman Coulter Inc.) (approximately 100,000 cells/well) and incubated at 37° C./5% CO2. for 20-24 hours. After an extensive wash with Low sodium HEPES-buffered saline solution (LNHBSS) (150 mM Choline Chloride, […] (Sigma), 1 mM Calcium Chloride, 5 mM Potassium Chloride, 1 mM Magnesium Chloride, 10 mM Glucose) agents diluted with LNHBSS are added to each well. (Varying concentrations of test agent may be used). The activation/radiolabel mixture contains aconitine (Sigma), and ^14C-guanidine hydrochloride (ARC).
After loading the cells with test agent and activation/radiolabel mixture, the Scintiplates are incubated at ambient temperature. Following the incubation, the Scintplates are extensively washed with LNHBSS supplemented with guanidine (Sigma). The Scintiplates are dried and then counted using a Wallac MicroBeta TriLux (Perkin-Elmer Life Sciences). The ability of the test agent to block sodium channel activity is determined by comparing the amount of ^14C-guanidine present inside the cells expressing the different sodium channels.
IC-50 value of a test agent for a specific sodium channel may be determined using the above general method. IC-50 may be determined using a 3,8,10,12 or 16 point curve in duplicate or triplicate with a starting concentration of 1, 5 or 10 μM diluted serially with a final concentration reaching the sub-nanomolar, nanomolar and low micromolar ranges. Typically the mid-point concentration of test agent is set at 1 μM, and sequential concentrations of half dilutions greater or smaller are applied (e.g. 0.5 μM; […] and 0.25 μM; 10 μM and 0.125 μM; 20 μM etc.). The IC-50 curve is calculated using the 4 Parameter Logistic Model or Sigmoidal Dose-Response Model formula (fit=(A+((B−A)/(1+((C/x)̂D)))).
By IC50 is commonly meant the point on the concentration scale where inhibition reaches its midpoint. As for `CCCCc1nc2ccccn2c(=O)c1-c1ccc(OC)cc1` [Example 1, 2-butyl-3-(4-methoxyphenyl)-4H-pyrido[1,2-a]pyrimidin-4-one], the half-inhibitory concentration (IC50) was ≥ 10 µM. Same read-out and setting: as for `CCCCc1nc2ccccn2c(=O)c1-c1ccc(Cl)cc1` [Example 1.8, 2-butyl-3-(4-chlorophenyl)-4H-pyrido[1,2-a]pyrimidin-4-one], the figure is ≥ 10 µM. Same read-out and setting: for `CCCCc1nc2cc(C(F)(F)F)ccn2c(=O)c1-c1ccc(Cl)cc1` [Example 1.21, 2-butyl-3-(4-chlorophenyl)-8-(trifluoromethyl)-4H-pyrido[1,2-a]pyrimidin-4-one] the value was ≥ 10 µM; for `CCCOc1nc2ccccn2c(=O)c1-c1ccc(Cl)cc1` [Example 1.25, 2-propoxy-3-(4-chlorophenyl)-4H-pyrido[1,2-a]pyrimidin-4-one], 1 to 10 µM; for `CCCCc1nc2ccccn2c(=O)c1-c1ccc2c(c1)CCN2` [Example 2, 2-butyl-3-(indolin-5-yl)-4H-pyrido[1,2-a]pyrimidin-4-one hydrochloride], ≥ 10 µM. The same measure, in the same setting: for `CCc1nc2ccccn2c(=O)c1-c1ccc(N[C@@H]2CCN(C(=O)OC(C)(C)C)C2)cc1` [Example 3.4, (R)-tert-butyl 3-(4-(2-ethyl-4-oxo-4H-pyrido[1,2-a]pyrimidin-3-yl)phenylamino)pyrrolidine-1-carboxylate] the value was ≥ 10 µM; for `CCCCc1nc2ccccn2c(=O)c1-c1ccc(N2CCOCC2)cc1` [Example 3.25, 2-butyl-3-(4-morpholin-4-ylphenyl)-4H-pyrido[1,2-a]pyrimidin-4-one], ≥ 10 µM. Regarding `CCCCc1nc2ccccn2c(=O)c1-c1ccc(NC2CCOCC2)cc1` [Example 3.26, 2-butyl-3-[4-(tetrahydro-2H-pyran-4-ylamino)phenyl]-4H-pyrido[1,2-a]pyrimidin-4-one hydrochloride], the IC50 was ≥ 10 µM. The same measure, in the same setting: as for `CCCCc1nc2ccccn2c(=O)c1-c1ccc(NC[C@H]2CCCO2)cc1` [Example 3.27, (R)-2-butyl-3-(4-{[tetrahydrofuran-2-ylmethyl]amino}phenyl)-4H-pyrido[1,2-a]pyrimidin-4-one hydrochloride], the figure is ≥ 10 µM. The same measure, in the same setting: for `CCCCc1nc2ccccn2c(=O)c1-c1ccc(NC[C@@H]2CCCO2)cc1` [Example 3.28, (S)-2-butyl-3-(4-{[tetrahydrofuran-2-ylmethyl]amino}phenyl)-4H-pyrido[1,2-a]pyrimidin-4-one hydrochloride] the value was ≥ 10 µM; for `CCCCc1nc2ccccn2c(=O)c1-c1ccc(N[C@@H]2CCOC2)cc1` [Example 3.29, (R)-2-butyl-3-{4-[tetrahydrofuran-3-ylamino]phenyl}-4H-pyrido[1,2-a]pyrimidin-4-one hydrochloride], ≥ 10 µM; for `CCCCc1nc2ccccn2c(=O)c1-c1ccc(NC2CCCNC2)cc1` (centres unmarked) [Example 6, 2-butyl-3-[4-(piperidin-3-ylamino)phenyl]-4H-pyrido[1,2-a]pyrimidin-4-one hydrochloride], ≥ 10 µM. As to `CCCCc1nc2ccccn2c(=O)c1-c1ccc(NC2CCNCC2)cc1` [Example 6.1, 2-butyl-3-[4-(piperidin-4-ylamino)phenyl]-4H-pyrido[1,2-a]pyrimidin-4-one hydrochloride], the IC50 is ≥ 10 µM. `CCCCc1nc2ccccn2c(=O)c1-c1ccc(N[C@@H]2CCCNC2)cc1` [Example 6.2, (R)-2-butyl-3-{4-[piperidin-3-ylamino]phenyl}-4H-pyrido[1,2-a]pyrimidin-4-one hydrochloride]: the IC50 was ≥ 10 µM.

On to `Cc1nc2ccccn2c(=O)c1-c1ccc(N[C@@H]2CCNC2)cc1` [Example 6.3, (R)-2-methyl-3-(4-(pyrrolidin-3-ylamino)phenyl)-4H-pyrido[1,2-a]pyrimidin-4-one hydrochloride], for which the IC50 was ≥ 10 µM. The same measure, in the same setting: as for `CCc1nc2ccccn2c(=O)c1-c1ccc(N[C@@H]2CCNC2)cc1` [Example 6.4, (R)-2-ethyl-3-(4-(pyrrolidin-3-ylamino)phenyl)-4H-pyrido[1,2-a]pyrimidin-4-one hydrochloride], the figure is ≥ 10 µM; as for `CCCc1nc2ccccn2c(=O)c1-c1ccc(N[C@@H]2CCNC2)cc1` [Example 6.5, (R)-2-propyl-3-(4-(pyrrolidin-3-ylamino)phenyl)-4H-pyrido[1,2-α]pyrimidin-4-one hydrochloride], ≥ 10 µM. The same measure, in the same setting: for `CCCCc1nc2ccc(C)cn2c(=O)c1-c1ccc(N[C@@H]2CCNC2)cc1` [Example 6.6, (R)-2-butyl-7-methyl-3-{4-[pyrrolidin-3-ylamino]phenyl}-4H-pyrido[1,2-a]pyrimidin-4-one hydrochloride] the value was ≥ 10 µM. Same read-out and setting: for `CCCCc1nc2ccc(F)cn2c(=O)c1-c1ccc(N[C@@H]2CCNC2)cc1` [Example 6.7, (R)-2-butyl-7-fluoro-3-{4-[pyrrolidin-3-ylamino]phenyl}-4H-pyrido[1,2-a]pyrimidin-4-one hydrochloride] the value was ≥ 10 µM; for `CCCCc1nc2cc(C(F)(F)F)ccn2c(=O)c1-c1ccc(N[C@@H]2CCNC2)cc1` [Example 6.8, (R)-2-butyl-3-{4-[pyrrolidin-3-ylamino]phenyl}-8-(trifluoromethyl)-4H-pyrido[1,2-a]pyrimidin-4-one hydrochloride], ≥ 10 µM. As to `CCCCc1nc2c3ccccc3ccn2c(=O)c1-c1ccc(N[C@@H]2CCNC2)cc1` [Example 6.9, (R)-2-butyl-3-{4-[pyrrolidin-3-ylamino]phenyl}-4H-pyrimido[2,1-a]isoquinolin-4-one hydrochloride], the IC50 is ≥ 10 µM.

System in the next series: not given
Assay: not given
Settings: not given
A word on the melting point: it is the temperature, or range, at which the solid turns liquid. For `CC(C)CCc1nc2ccccn2c(=O)c1-c1ccc(Cl)cc1` [Example 1.17, 3-(4-chlorophenyl)-2-isopentyl-4H-pyrido[1,2-a]pyrimidin-4-one], the melting point lay within 146 to 149 °C. Regarding `COCCc1nc2ccccn2c(=O)c1-c1ccc(Cl)cc1` [Example 1.26, 3-(4-chlorophenyl)-2-(2-methoxyethyl)-4H-pyrido[1,2-a]pyrimidin-4-one], the melting point was 116 to 118 °C. The same measure, in the same setting: as for `CCCCc1nc2ccccn2c(=O)c1-c1ccc2[nH]ccc2c1` [Example 1.30, 2-butyl-3-(1H-indol-5-yl)-4H-pyrido[1,2-a]pyrimidin-4-one], the figure is 132 to 135 °C; as for `CCCCc1nc2ccccn2c(=O)c1-c1ccc(NC2CCN(C(=O)OC(C)(C)C)C2)cc1` (centres unmarked) [Example 3.7, tert-butyl 3-{[4-(2-butyl-4-oxo-4H-pyrido[1,2-a]pyrimidin-3-yl)phenyl]amino}pyrrolidine-1-carboxylate], 116 to 118 °C. The same measure, in the same setting: as for `CCCCc1nc2ccccn2c(=O)c1-c1ccc(N[C@H]2CCN(C(=O)OC(C)(C)C)C2)cc1` [Example 3.8, (S)-tert-butyl 3-(4-(2-butyl-4-oxo-4H-pyrido[1,2-a]pyrimidin-3-yl)phenylamino)pyrrolidine-1-carboxylate], the figure is 95 to 96 °C; as for `CCCCc1nc2ccccn2c(=O)c1-c1ccc(N[C@@H]2CCN(C(=O)OC(C)(C)C)C2)cc1` [Example 3.9, (R)-tert-butyl 3-(4-(2-butyl-4-oxo-4H-pyrido[1,2-a]pyrimidin-3-yl)phenylamino)pyrrolidine-1-carboxylate], 98 to 99 °C; as for `CC(C)Nc1nc2ccccn2c(=O)c1-c1ccc(N[C@@H]2CCN(C(=O)OC(C)(C)C)C2)cc1` [Example 3.23, (R)-tert-butyl 3-[(4-{2-[(1-methylethyl)amino]-4-oxo-4H-pyrido[1,2-a]pyrimidin-3-yl}phenyl)amino]pyrrolidine-1-carboxylate], 208 to 211 °C. `CCCCc1nc2ccccn2c(=O)c1-c1ccc(N[C@@H]2CCN(C)C2)cc1` [Example 10, (R)-2-butyl-3-(4-{[1-methylpyrrolidin-3-yl]amino}phenyl)-4H-pyrido[1,2-a]pyrimidin-4-one] returned a melting point of 141 to 143 °C.
